The results in this text go back to patent US20240139214A1, “AGENT FOR SUPPRESSING IL-31 PRODUCTION AND PHARMACEUTICAL COMPOSITION CONTAINING THE SAME” (KYUSHU UNIVERSITY, NATIONAL UNIVERSITY CORPORATION, priority 2021, published 2024).

One experiment deals with mouse IL-31 gene. Nature of the experiment: IL-31 production inhibitory action: IL-31 gene expression by real-time PCR in antigen-stimulated CD4+ T cells from Dock8−/− AND Tg mice. It counts as cell-based. The settings on record: for activity at 0.078 µM / activity at 0.156 µM / activity at 0.312 µM / activity at 0.625 µM / activity at 1.25 µM / activity at 2.5 µM: Mus musculus, CD4+ T, 24 h, read-out: qPCR results (IL-31 production (%)): based on the case using 0.1% DMSO taken as 100%; for IL-31 production inhibitory action (in words, discussion of Table 1): relative to compound 1. (In general: In qPCR the cycle at which signal appears reflects the starting amount.)

For a further experiment, the system named is CD4+ T cells. Kind of experiment: T cell proliferation assay (PMA and ionomycin, 3H-thymidine incorporation). The settings on record: Mus musculus, CD4+ T, 66 h, read-out: Cell proliferation (%): based on the case using 0.2% DMSO taken as 100%. The experiment is classed as cell-based, mouse. How it is done:
A T cell proliferation assay was performed by culturing CD4^+ T cells (5×10^4 cells) with T cell-depleted irradiated spleen cells (1×10^6 cells) in the presence of phorbol 12-myristate 13-acetate (PMA: 100 ng/ml; Sigma-Aldrich) and ionomycin (1 μg/ml; Sigma-Aldrich) for 66 hours. For the last 18 hours of culture, ^3H-thymidine (0.037 MBq) was added, and the incorporated radioactivity was measured with MicroBeta^2 (PerkinElmer, Inc., Waltham, MS).
A T cell proliferation assay was performed by culturing CD4^+ T cells (5×10^4 cells) with T cell-depleted irradiated spleen cells (1×10^6 cells) in the presence of phorbol 12-myristate 13-acetate (PMA: 100 ng/ml; Sigma-Aldrich) and ionomycin (1 μg/ml; Sigma-Aldrich) for 66 hours. Test compounds were added at various final concentrations at the start of culture. For the last 18 hours of culture, ^3H-thymidine (0.037 MBq) was added, and the incorporated radioactivity was measured with MicroBeta^2 (PerkinElmer, Inc., Waltham, MS). […]
Background: Uptake of a labelled nucleoside into DNA is a usual measure of proliferation.

With `O=C(O)c1ccc(-c2nc(-c3cc(C(F)(F)F)ccc3Cl)no2)cc1` [Compound 33, 4-(3-(2-Chloro-5-(trifluoromethyl)phenyl)-1,2,4-oxadiazol-5-yl)benzoic Acid], in the experiment with mouse IL-31 gene, the activity at 0.078 µM was 57.7%, the activity at 0.156 µM was found to be 48.9%, the activity at 0.312 µM came out at 37.9% and the activity at 0.625 µM was 25.1%. Further, in the experiment with mouse IL-31 gene, the activity at 1.25 µM was 28% and the activity at 2.5 µM amounted to 29.7%. In the experiment with CD4+ T cells, the activity at 10 µM stood at 73.5%, the activity at 20 µM is 66.7% and the activity at 40 µM stood at 64.3%.

Regarding `CC(C)c1ccc(/C=N/Nc2ccccc2C(=O)O)cc1` [Negative control compound 5, 2-(2-(4-Isopropylbenzylidene)hydrazineyl)benzoic Acid, reference compound], in the experiment on mouse IL-31 gene, the “IL-31 production inhibitory action (in words, discussion of Table 1)” value (“IL-31 production inhibitory action” below) is “completely lost”.

For the compound `CC(C)c1ccc(C(=O)Nc2nnc(-c3ccc(C(=O)O)cc3)s2)cc1` [Compound 34, 4-(5-(4-Isopropylbenzamido)-1,3,4-thiadiazol-2-yl)benzoic Acid], in the experiment with mouse IL-31 gene, the activity at 0.625 µM is 48.3% and the activity at 1.25 µM was determined as 52.3%. For the same compound, in the experiment with CD4+ T cells, the activity at 10 µM amounted to 79%, the activity at 20 µM was found to be 90.8% and the activity at 40 µM was determined as 87.8%.

Turning to `O=C(O)c1ccc(-c2cc(-c3cc(C(F)(F)F)ccc3Cl)[nH]n2)cc1` [Compound 29, 4-(5-(2-Chloro-5-(trifluoromethyl)phenyl)-1H-pyrazol-3-yl)benzoic Acid], in the experiment on mouse IL-31 gene, the activity at 0.156 µM was 59.1%, the activity at 0.312 µM stood at 52.3%, the activity at 0.625 µM was found to be 61.9% and the activity at 1.25 µM stood at 40.7%. Further, the activity at 2.5 µM in the experiment on mouse IL-31 gene came to 63.6%. In the experiment with CD4+ T cells, the activity at 10 µM is 88.6%, the activity at 20 µM stood at 77.7% and the activity at 40 µM turned out to be 86%.

Regarding `O=C(O)c1ccc(-c2cnc(-c3cc(C(F)(F)F)ccc3Cl)o2)cc1` [Compound 20, 4-(2-(2-Chloro-5-(trifluoromethyl)phenyl)oxazol-5-yl)benzoic Acid], in the experiment with mouse IL-31 gene, the activity at 0.078 µM stood at 16.9%, the activity at 0.156 µM turned out to be 17.7%, the activity at 0.312 µM worked out at 23.3% and the activity at 0.625 µM was 24.7%. In the experiment on mouse IL-31 gene, the activity at 1.25 µM came out at 22.1% and the activity at 2.5 µM is 32.6%. Also, in the experiment on CD4+ T cells, the activity at 10 µM came to 91.2%, the activity at 20 µM was found to be 87.5% and the activity at 40 µM amounted to 86.7%.

Regarding `CN(C)c1ccc(/C=N/Nc2ccc(C(=O)O)cc2)c(O)c1` [Negative control compound 2, 4-(2-(4-(Dimethylamino)-2-hydroxybenzylidene)hydrazineyl)benzoic Acid, reference compound], the “IL-31 production inhibitory action” value in the experiment on mouse IL-31 gene is “tended to notably decrease”.

For the compound `CC(C)c1ccc(/C=N/Nc2cccc(C(=O)O)c2)cc1` [Negative control compound 4, 3-(2-(4-Isopropylbenzylidene)hydrazineyl)benzoic Acid, reference compound], the “IL-31 production inhibitory action” value in the experiment with mouse IL-31 gene was “completely lost”.

Turning to `CN(C)c1ccc(-c2cnc(-c3ccc(C(=O)O)cc3)o2)cc1` [Compound 19, 4-(5-(4-(Dimethylamino)phenyl)oxazol-2-yl)benzoic Acid], in the experiment on mouse IL-31 gene, the activity at 0.312 µM amounted to 67.6%, the activity at 0.625 µM came out at 69.9%, the activity at 1.25 µM was determined as 54.5% and the activity at 2.5 µM was 16.9%. Also, the activity at 5 µM in the experiment on CD4+ T cells (5 μM) was found to be 86.3%. Also, in the experiment with CD4+ T cells, the activity at 10 µM was 79.4%, the activity at 20 µM came to 66% and the activity at 40 µM came out at 67.4%.

Turning to `O=C(O)c1ccc(-c2nnc(-c3cc(C(F)(F)F)ccc3Cl)o2)cc1` [Compound 32, 4-(5-(2-Chloro-5-(trifluoromethyl)phenyl)-1,3,4-oxadiazol-2-yl)benzoic Acid], in the experiment with mouse IL-31 gene, the activity at 0.156 µM came out at 35.5%, the activity at 0.312 µM came out at 52.1%, the activity at 0.625 µM is 39.9% and the activity at 1.25 µM was found to be 53.5%. In the experiment on CD4+ T cells, the activity at 10 µM stood at 115%, the activity at 20 µM amounted to 92.7% and the activity at 40 µM amounted to 91.8%.

With `O=C(O)c1ccc(-c2cc(-c3cc(C(F)(F)F)ccc3Cl)no2)cc1` [Compound 21, 4-(3-(2-Chloro-5-(trifluoromethyl)phenyl)isoxazol-5-yl)benzoic Acid], in the experiment with mouse IL-31 gene, the activity at 0.078 µM worked out at 23.7%, the activity at 0.156 µM was 29.9%, the activity at 0.312 µM stood at 25.3% and the activity at 0.625 µM came out at 23%. In addition, in the experiment on mouse IL-31 gene, the activity at 1.25 µM is 38.2% and the activity at 2.5 µM is 13.1%. Further, in the experiment with CD4+ T cells, the activity at 10 µM came out at 95.5%, the activity at 20 µM stood at 98.2% and the activity at 40 µM turned out to be 106%.

With `CC(C)c1ccc(-c2cnc(-c3ccc(C(=O)O)cc3)[nH]2)cc1` [Compound 26, 4-(5-(4-Isopropylphenyl)-1H-imidazol-2-yl)benzoic Acid], in the experiment on mouse IL-31 gene, the activity at 0.625 µM worked out at 45.1% and the activity at 1.25 µM was 26.2%. Besides, in the experiment on CD4+ T cells, the activity at 10 µM turned out to be 77.1%, the activity at 20 µM came to 70.6% and the activity at 40 µM is 64.6%.

For the compound `CC(C)(C)c1ccc(/C=N/Nc2ccc(C(=O)O)cc2)cc1` [Compound 2, 4-(2-(4-(tert-Butyl)benzylidene)hydrazinyl)benzoic Acid], the “IL-31 production inhibitory action” value in the experiment with mouse IL-31 gene was “maintained”.

Regarding `CC(C)c1ccc(-c2cc(-c3ccc(C(=O)O)cc3)n[nH]2)cc1` [Compound 28, 4-(5-(4-Isopropylphenyl)-1H-pyrazol-3-yl)benzoic Acid], in the experiment with mouse IL-31 gene, the activity at 0.156 µM stood at 73.2%, the activity at 0.312 µM amounted to 70.6%, the activity at 0.625 µM came to 42.6% and the activity at 1.25 µM was 28%. Moreover, in the experiment on CD4+ T cells, the activity at 10 µM worked out at 99.9%, the activity at 20 µM came out at 89.5% and the activity at 40 µM was found to be 69.1%.

Turning to `CN(CC(O)CO)c1ccc(/C=N/Nc2ccc(C(=O)O)cc2)cc1` (stereo not drawn) [Negative control compound 3, 4-(2-(4-((2,3-Dihydroxypropyl)(methyl)amino)benzylidene)hydrazineyl)benzoic Acid, reference compound], the “IL-31 production inhibitory action” value in the experiment with mouse IL-31 gene is listed as “tended to notably decrease”.

As to `O=C(O)c1ccc(N/N=C/C2CCCCC2)cc1` [Negative control compound 7, 4-(2-(Cyclohexylmethylene)hydrazinyl)benzoic Acid, reference compound], the “IL-31 production inhibitory action” value in the experiment on mouse IL-31 gene is recorded as “completely lost”.

As to `CC(C)c1ccc(/C=N/Nc2ccccc2)cc1` [Negative control compound 6, 1-(4-Isopropylbenzylidene)-2-phenylhydrazine, reference compound], the “IL-31 production inhibitory action” value with mouse IL-31 gene was “completely lost”.

With `CN(C)c1ccc(/C=N/Nc2ccc(C(=O)O)cc2)cc1` [Compound 3, 4-(2-(4-(Dimethylamino)benzylidene)hydrazinyl)benzoic Acid], the “IL-31 production inhibitory action” value in the experiment on mouse IL-31 gene is on record as “maintained”.
